Data set [1] is described as follows: Non-specific cytotoxicity assay (MTT), purified mouse B cells. It counts as cell-based. To be noted: BALB/c. The method, then: BALB/c mice were sacrificed by cervical dislocation, and spleens were aseptically excised to prepare spleen lymphocytes. The cells were adjusted to 1×10^8 cells/ml, blocked with 2.4G2 (final concentration: 10 μg/ml) for 20 min, cultured with PE-CD19 (final concentration: 5 μg/ml) for 20 min, washed with MACS buffer, centrifuged at 4° C., 300G for 10 min, 100 μl anti-PE beads were added per 1×10^8 cells, incubated with 900 μl MACS buffer for 15 min, washed with MACS buffer, centrifuged at 4° C., 300G for 10 min. The supernatant was discarded. 500 μl MACS buffer was added per 1×10^8 cells to resuspend the cells. MACS column was used for separation. Magnetically labeled cells were retained on the column. The MACS column was removed from the magnetic field and then eluted.
Hydroxychloroquine sulfate was diluted with a 2-fold gradient into 3 concentrations starting from 8 μM: 8, 4 and 2 μM. Naphthoquine phosphate was diluted with a 2-fold gradient into 3 concentrations starting from 0.5 μM: 0.5, 0.25, 0.125 μM. Purified mouse B cells were inoculated into a 96-well plate at 1×10^6/well, and gradient diluted compounds were added. A corresponding blank control and a cell control were set up. The cells were cultured in a 37° C., 5% CO2 incubator for 48 hours. […] The absorbance value was measured at 570 nm with a microplate reader (Spectra Max 190, Molecular Devices).

Data set [2] concerns purified splenic B cells of arthritic mice. Kind of data set: TLRs-L-induced activation of purified splenic B cells from treated arthritic mice. It counts as in vivo, mouse. As to conditions: intragastric 50, 100 mg/kg, FIG. 6. The method, then:
Normal group, model group, positive medicament (1 mg/kg methotrexate) group, naphthoquine phosphate (50, 100 mg/kg) group, hydroxychloroquine sulfate (100 mg/kg) group.
Same as those described in Example 5.
At the end of the experiment, spleens of mice in each group were collected, and splenic B cells were purified as described in Example 4. Different TLRs-L were used for stimulation. ^3H-TDR incorporation method was used to detect proliferation, ELISA method was used to detect the levels of IL-6 and antibody secretion, and flow cytometry was used to detect the expressions of CD80, CD86, and CD69.
Suspensions of purified mouse B cells from each group were inoculated into a 96-well plate at 4×10^5/well, and the stimulant TLR4-L (final concentration: 10 μg/ml), TLR7-L (final concentration: 5 μg/ml) or TLR9-L (final concentration: 1 μM) was added. […] 5 ml scintillation fluid was added, and the values of radioactive counts per minute were read on a Beta counter (2450 Microplate Counter, PerkinElmer).
Suspensions of purified mouse B cells from each group were inoculated into a 96-well plate at 4×10^5/well, and the stimulant TLR4-L (final concentration: 10 μg/ml), TLR7-L (final concentration: 5 μg/ml) or TLR9-L (final concentration: 1 μM) was added. […] After the end of the culture, the cell culture supernatants were collected, and the level of IL-6 was measured by ELISA. […]

The subject of data set [3] is adjuvant-induced arthritis in rats. Kind of data set: Adjuvant-induced arthritis in rats: arthritis scoring and foot swelling. Type of data set: in vivo, rat. As to conditions: FIG. 7.
A further data set concerns anti-dsDNA antibodies. Kind of data set: Anti-double-stranded DNA antibodies in serum of MRL/lpr mice (ELISA). It counts as in vivo, mouse. As to conditions: intragastric 25, 50 mg/kg, FIG. 8. Here is the method: Normal group, model group, positive medicament (1 mg/kg prednisone) group, naphthoquine phosphate (25, 50 mg/kg) group, hydroxychloroquine sulfate (100 mg/kg) group.
50 μl double-stranded DNA solution (final concentration: 50 μg/ml) was added to each well of a 96-well ELISA plate for coating overnight. The plate was washed 4 times with 200 μl washing solution (1L PBS+500 μl Tween 20) per well. 100 μl 1% BSA was added to each well and blocked for 1 hour. The plate was washed 4 times with 200 μl washing solution per well. 50 μl diluted mouse serum samples of each group were added to each well and incubated for 2 hours. The plate was washed 4 times with 200 μl washing solution per well. Horseradish peroxidase (HRP)-conjugated IgG (H+L) secondary antibodies were added and incubated for 1 hour. The plate was washed 5 times with 200 μl washing solution per well. 50 μl tetramethylbenzidine (TMB) substrate was added, and 30 μl 1M sulfuric acid solution was added to terminate color development based on the condition of color development. Absorbance values at 450 nm/570 nm were read by a microplate reader (Spectra Max 190, Molecular Devices).
At the end of the experiment, eyeballs were removed to collect blood. ELISA method was used to detect the levels of anti-dsDNA antibodies in serum of experimental mice, and the anti-nuclear antibody kit was used to detect the levels of anti-nuclear antibodies. […]

Where a name gives a salt, the structure may show the parent alone.

Broadly, the CC50 is the concentration that lowers cell viability or growth by half. `CCN(CCO)CCCC(C)Nc1ccnc2cc(Cl)ccc12` (stereo not shown) [Hydroxychloroquine Sulfate, hydroxychloroquine sulfate] had a CC50 at 48 h in data set [1] of 19.7 µM.

On to `CC(C)(C)NCc1cc(Nc2ccnc3cc(Cl)ccc23)c2c(c1O)CCCC2.O=P(O)(O)O.O=P(O)(O)O` [Naphthoquine Phosphate, Naphthoquine phosphate], for which, in data set [1], the CC50 at 48 h was 1.98 µM. Moreover, the “B cell activation, cytokine secretion and antibody production mediated by TLR signaling” value in data set [2] is recorded as “significantly inhibited”. In data set [3] (intragastric 25, 50, 100 mg/kg), the “clinical arthritis scores of the experimental rats” value was “improved” and the “extent of foot swelling in rats” value is on record as “inhibited”. Besides, in data set [3] (same dose (100 mg/kg)), the “therapeutic effect in arthritic rats compared with hydroxychloroquine sulfate” value was “superior to that of hydroxychloroquine sulfate at the same dose”. Also, the “levels of anti-dsDNA antibodies in serum” value in the data set with anti-dsDNA antibodies is “significantly reduced”.

The values are drawn from patent US20250332154A1, “USE OF NAPHTHOQUINE PHOSPHATE IN PREPARATION OF A MEDICAMENT FOR TREATING AUTOIMMUNE DISEASES” (SHANGHAI PHARMACEUTICALS INDUSTRY CO., LTD, priority 2022, published 2025).
